Results as given in patent publication US10898708B2, “System and method for applying pulsed electromagnetic fields” (National University of Singapore, priority 2015, dated 2021).
“Also recorded” adds a separate entry of the source.

Columns and labels:
C2C12 myoblasts [1] = experiment: Cell cycle (G2/M accumulation) of myoblasts in simulated microgravity; type: cell-based, mouse; details: 5 mM added transiently 10 minutes before simulated microgravity; at 2 hours
Protocol: The RPM was kept in a temperature-controlled room at 37° C. The calculated gravity exerted upon cells on the RPM was below 0.02 g. Cells were seeded 15 hours prior to the start of the RPM experiment at 8000/cm^2. At 15 hours some samples were incubated with 5 mM CaCl2 for 10 min, washed twice with PBS, given aged matched GM and placed onto the RPM. Other samples were exposed to PEMF at 37° C. (0.5 or 1.5 mT) for 10 min before being placed onto the RPM. Samples were fixed after 2 hours for subsequent cell cycle analysis as described below.
Following RPM treatment (above) cells were fixed and stored at −20° C. in 70% ice-cold ethanol for 12 to 18 hours prior to staining. Cell cycle was analyzed based on DNA content using a propidium iodide (PI)/RNase staining kit (BD Biosciences, cat#550825) by FACS.

C2C12 myoblasts [2] = experiment: Intracellular calcium in C2C12 myoblasts (Calcium Green-1; flow cytometry or plate reading); type: cell-based, mouse
Protocol: In preparation for measurement of changes in intracellular calcium in response to PEMF treatment with flow cytometry myoblasts (50,000 cells) were spun down (1000 RCF; 5 minutes), resuspended in 2 ml of PBS and next loaded with 20 μl Calcium Green-1, AM (50 μg in 100 μl DMSO; Molecular Probes) for 30 minutes at 37 C in the dark. Following incubation, cells were washed once, resuspended into 500 μl PBS and placed on ice before registry in a BD FACSAria Flow Cytometer (FL1 channel). For plate reading assessment of intracellular calcium, myoblasts were plated into 96 black well plates (Brand 96 Flat Bottom Black) at 10,000 cells/wells. Cultures were washed once with PBS and supplied with 250 μl growth media to which Calcium Green-1 AM (50 μg in 100 μl DMSO; Molecular Probes) had been added at a dilution of 1:1000. Myoblasts cultures were then incubated in a standard tissue culture incubator for 5 minutes, followed by PEMF exposure for 10 minutes and then replaced in the incubator for an additional 15 minutes at 37° C. before washing with 37° C. PBS. Calcium measurement was conducted using a Tecan Infinite 200Pro plate reader with excitation wavelength and emission wavelengths set to 500 nm and 535 nm, respectively, and bandwidth excitation and emission wavelengths set to 9 and 20 nm, respectively.
(§1) Each pulse train consists of 20×150 μsec asymmetric pulses separated by 150 μsec interpulse intervals to the 0 flux level. The magnetic flux density rose to maximal level within 20-50 μsec and dropped equally as rapidly (50 T/s).

C2C12 myoblasts [3] = experiment: PEMF-induced proliferation of C2C12 myoblasts; details: 100 μM; 1 mT PEMFs within 18 hours after plating
TRPC1 channel = target: T1, TRPC1 channel (Homo sapiens, UniProt P48995); experiment: Oxygen consumption rate (OCR) of myoblasts in response to PEMF; type: cell-based; details: oxygen consumption measured 6 hours after PEMF
T1 construct: PEMF-induced TRPC1-mediated calcium entry in myoblasts increases oxygen consumption rate (OCR); endogenous in cells
Protocol: Muscle gene expression enhanced by PEMF treatment as indicated. […] The principal functions of these genes are shown in the parentheses. […] A) Human myoblast measurement showing increased OCR six hours following exposure to 1.5 mT PEMFs for 10 minutes. B) The production of reactive oxygen species (ROS) also increases 15 minutes after PEMF (1.5 mT) exposure.
C) Oxygen consumption rate (OCR) in response to PEMF stimulation obeys the same EMF efficacy window as proliferation. […] Cells were exposed to PEMFs and oxygen consumption measured 6 hours later. These cellular responses obey a mitohormeitic EMF efficacy window particular for skeletal muscle.

C2C12 myoblasts [4] = experiment: Myogenic differentiation (myotube area) of C2C12 myoblasts after PEMF; type: cell-based, mouse; details: 100 μM co-administered; 1 mT PEMFs, early application
Protocol: Series of 4 images with 20× magnification were taken for each sample and myotube area was calculated by manually delimiting the myotube periphery using ImageJ (Cell Counter plugin).
as §1

[5] = extracellular magnesium raised to 10 mM, plate reading

T1 sequence (P48995 whole entry): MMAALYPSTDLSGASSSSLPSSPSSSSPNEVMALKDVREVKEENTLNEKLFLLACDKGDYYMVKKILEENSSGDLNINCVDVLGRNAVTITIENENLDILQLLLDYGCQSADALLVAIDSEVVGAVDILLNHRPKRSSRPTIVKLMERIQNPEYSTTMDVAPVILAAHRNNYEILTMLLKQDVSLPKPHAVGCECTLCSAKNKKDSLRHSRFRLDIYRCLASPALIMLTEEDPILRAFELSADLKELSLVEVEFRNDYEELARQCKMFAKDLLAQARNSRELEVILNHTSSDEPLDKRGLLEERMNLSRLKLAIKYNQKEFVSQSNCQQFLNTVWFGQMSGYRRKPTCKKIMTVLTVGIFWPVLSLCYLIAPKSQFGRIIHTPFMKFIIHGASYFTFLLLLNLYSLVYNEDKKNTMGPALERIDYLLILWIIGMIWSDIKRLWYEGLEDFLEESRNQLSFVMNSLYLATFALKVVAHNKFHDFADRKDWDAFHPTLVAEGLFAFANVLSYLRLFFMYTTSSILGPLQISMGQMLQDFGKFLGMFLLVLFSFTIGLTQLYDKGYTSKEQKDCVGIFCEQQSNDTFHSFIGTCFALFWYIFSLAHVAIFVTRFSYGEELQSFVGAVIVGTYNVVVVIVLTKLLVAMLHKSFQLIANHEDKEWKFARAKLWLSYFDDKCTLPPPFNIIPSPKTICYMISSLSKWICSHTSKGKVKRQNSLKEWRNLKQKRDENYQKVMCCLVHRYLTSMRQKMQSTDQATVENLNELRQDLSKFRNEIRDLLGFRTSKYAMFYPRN

**Q.** With `[Ca+2].[Cl-].[Cl-]` [CaCl2] as the molecule, how does the “Reversal of G2/M accumulation from simulated microgravity” value (C2C12 myoblasts [1]) read?
**A.** Its value is “mimic the effects of 1.5 mT PEMFs”.

**Q.** What does the source list for `NCCOB(c1ccccc1)c1ccccc1` [2-APB, 2-Aminoethyl diphenylborinate]?
**A.** [Ca^2+]i / cytosolic calcium level (C2C12 myoblasts [2]; 10 μM, unstimulated (0 mT) and stimulated (1 mT) myoblasts): reduced the cytosolic calcium levels to a common baseline; also recorded: reduced [Ca^2+]i to a common baseline; PEMF-provoked calcium increments (C2C12 myoblasts [2]; antagonizing TRPM7/C1 channels, 1 mT PEMFs): precluded the ability of PEMFs to provoke calcium increments; PEMF-induced proliferation (C2C12 myoblasts [3]): abolished the ability of PEMFs to enhance proliferation

**Q.** Which “PEMF-induced rise of intracellular calcium” value (C2C12 myoblasts [2]; [5]) does the source give for `[Mg+2]` [magnesium] here?
**A.** The value was “did not prevent PEMFs from raising intracellular calcium; also recorded: does not prevent PEMFs from raising intracellular calcium”.

**Q.** And the “basal and PEMF-induced calcium levels” value (C2C12 myoblasts [2]; [5])?
**A.** The value was “augmented both basal and PEMF-induced calcium levels”.

**Q.** How did the “[Ca^2+]i increase relative to unexposed cells” value (C2C12 myoblasts [2]; 1 μM, 30 min, compared with 1 mT PEMFs for 10 min, listed as lonomycin) turn out when `C[C@H](CCC(=O)O)C[C@H](C)C[C@H](C)C(=O)/C=C(\O)[C@H](C)C[C@H](C)C/C=C/[C@@H](C)[C@@H](O)[C@@H](C)[C@@H](O)C[C@@H]1CC[C@@](C)([C@H]2CC[C@@](C)([C@@H](C)O)O2)O1` [ionomycin] was run?
**A.** The value was “comparable magnitude”.

**Q.** What about the “[Ca^2+]i” value (C2C12 myoblasts [2]; 1 μM, five-hour application) of the same molecule?
**A.** Its value is “produced lethal [Ca^2+]i”.

**Q.** Which “OCR in response to PEMF exposure” value (TRPC1 channel) does the source give for `COc1ccc(CCCOC(Cn2ccnc2)c2ccc(OC)cc2)cc1` (centres unmarked) [SKF-96365] here?
**A.** The value was “blocks OCR in response to PEMF exposure”.

**Q.** With `COc1cc(CNC(=O)CCCC/C=C/C(C)C)ccc1O` [capsaicin] as the molecule, how does the “capsaicin calcium response versus response to PEMFs” value (C2C12 myoblasts [2]; 1 mT PEMFs) read?
**A.** The value was “inversely related to response to 1 mT PEMFs”.

**Q.** Which “PEMF enhancement of myotube size (mean myotube area)” value (C2C12 myoblasts [4]) does the source give for neomycin here?
**A.** The value was “prevented”.
